The values below come from paper PMC4942611, “Promising Tools in Prostate Cancer Research: Selective Non-Steroidal Cytochrome P450 17A1 Inhibitors” (Scientific Reports, 2016).

The target in one assay is T1, human CYP17A1 (Homo sapiens, UniProt P05093).
T1 construct: bearing a truncation of the N-terminal helix; made in house
T1 sequence (P05093 with tags, fused parts or gaps limits assumed): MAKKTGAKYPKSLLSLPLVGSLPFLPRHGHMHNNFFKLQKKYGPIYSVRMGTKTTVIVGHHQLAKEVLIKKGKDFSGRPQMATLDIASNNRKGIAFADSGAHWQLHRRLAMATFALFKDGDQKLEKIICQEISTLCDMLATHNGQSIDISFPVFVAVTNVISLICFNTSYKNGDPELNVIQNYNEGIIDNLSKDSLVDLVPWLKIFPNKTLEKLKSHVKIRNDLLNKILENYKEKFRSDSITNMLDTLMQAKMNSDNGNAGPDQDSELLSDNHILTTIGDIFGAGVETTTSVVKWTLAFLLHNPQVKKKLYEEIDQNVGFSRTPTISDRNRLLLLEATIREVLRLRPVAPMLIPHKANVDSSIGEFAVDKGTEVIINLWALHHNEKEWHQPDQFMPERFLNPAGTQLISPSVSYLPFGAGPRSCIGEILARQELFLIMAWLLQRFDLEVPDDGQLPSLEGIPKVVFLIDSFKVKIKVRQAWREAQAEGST
The experiment in a line: UV-VIS ligand binding assay (spectral titration) with purified CYP17A1. Particulars: 100 nM purified CYP17A1, mean over 2 measurements ± standard error. The method, then:
Direct coordination of nitrogen-containing heterocycles to the haem iron in the active site of cytochrome P450 enzymes causes a shift of the Soret peak λmax to higher wavelengths. Thus, UV-visible absorbance spectra were recorded as purified CYP17A1 was titrated with the 19 hit compounds. Addition of compounds 1–7 (cf. Fig. 2 and S3) yielded characteristic shifts in λmax from 417 nm to as high as 427 nm, typical of direct coordination to the haem iron. Plots of the changes in absorbance as a function of concentration can be used to evaluate ligand binding affinity. […] Compounds 6 and 7 have substantial intrinsic absorbance overlapping the range of the protein spectral change. Therefore the binding constants could not be determined for these latter two compounds.
Human CYP17A1 bearing a truncation of the N-terminal helix and a 4x histidine tag on the C-terminus was expressed and purified as previously reported.
Ligand binding was measured based on a change in UV-VIS absorbance (ΔA) upon ligand addition. Purified recombinant human cytochrome P450 enzymes (100 nM) were titrated with ligands dissolved in DMSO in 5 cm path length cuvettes. CYP17A1 and CYP21A2 were prepared in 50 mM Tris-HCl, pH 7.4, 500 mM NaCl, 20% (v/v) glycerol, and 100 mM glycine. The buffer used to prepare CYP21A2 also contained 50 mM DTT. CYP3A4 and CYP2D6 were prepared in 50 mM potassium phosphate, pH 7.4, 250 mM NaCl, 20% (v/v) glycerol and 1 mM EDTA. In each case, heteroatom coordination to the haem iron yields an increase in absorbance at ~420 nm and a corresponding decrease at ~390 nm. The apparent binding constant (Kd) and the maximum spectral change (ΔAmax) were calculated from a nonlinear least-squares regression fit to the tight binding equation (2) using GraphPad Prism 6.03.

In another assay the target is T2, CYP21A2 (Homo sapiens, UniProt P08686).
T2 sequence (P08686 1-495): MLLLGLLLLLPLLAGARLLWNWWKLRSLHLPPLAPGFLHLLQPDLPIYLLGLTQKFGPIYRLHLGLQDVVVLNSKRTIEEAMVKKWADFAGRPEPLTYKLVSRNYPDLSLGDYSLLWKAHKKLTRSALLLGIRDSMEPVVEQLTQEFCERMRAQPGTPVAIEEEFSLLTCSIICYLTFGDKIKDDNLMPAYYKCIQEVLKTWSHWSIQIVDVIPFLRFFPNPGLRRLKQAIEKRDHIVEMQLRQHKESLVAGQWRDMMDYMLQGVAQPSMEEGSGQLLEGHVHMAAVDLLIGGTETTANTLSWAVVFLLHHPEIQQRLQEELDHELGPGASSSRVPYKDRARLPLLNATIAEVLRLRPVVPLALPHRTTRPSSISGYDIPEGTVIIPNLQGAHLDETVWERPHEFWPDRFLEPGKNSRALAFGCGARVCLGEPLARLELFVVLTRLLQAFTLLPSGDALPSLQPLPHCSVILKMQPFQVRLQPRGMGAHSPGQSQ
The experiment in a line: H295R cell assay, CYP21A2 activity. Format: cell-based. As to conditions: H295R cells. The procedure:
This cellular assay was also used to evaluate inhibitor selectivity.
The H295R steroid hormone synthesis assay was performed according to the OECD validation guideline. Cells were cultured in DMEM/F12 media supplemented with 1% ITS-premix and 2.5% Nu-serum at 37 °C with a 5% CO2 atmosphere. The cells were only used for experiments between passage […]. During exposure experiments, cells were grown in 24 well plates with a density of 3 × 10^5 cells/mL. […] To avoid interference from low levels of steroid hormones present in the Nu-serum, the exposure experiment was conducted with serum-free media. Each compound was tested at a minimum of seven concentration levels using three or more replicates and the experiment was repeated on two different days (n = 6–15). On each test plate a solvent control (SC) (medium with 0.1% DMSO) was included in triplicate and the maximal concentration of DMSO in the cell medium was 0.1%[49]. After 48 hours of incubation in presence of the test compounds, 950 μL of the medium was carefully removed and internal standards (50 μl of 0.1 μg/μl solution containing deuterated steroid analogues) were added. Samples were stored at −20 °C for later analysis.

The structures appear in SMILES notation.

One may read the Kd as a measure of binding affinity in units of concentration. `Cc1ccc(-c2csc(-c3cccnc3)n2)c(C)c1` [Compound 1]: on human CYP17A1, the Kd is below 100 nM. Further, the “Inhibitor concentrations at which CYP21A2 is inhibited” value at CYP21A2 is reported as “greater than 1000 nM”.
Consider `CCCn1nnc2cc(-c3cc(-c4ccncc4)c(C#N)c(N)n3)ccc21` [Compound 2], for which the Kd on human CYP17A1 is below 100 nM. Besides, at CYP21A2, the “Inhibitor concentrations at which CYP21A2 is inhibited” value is listed as “above 1000 nM”.
The matching figures for `C[C@]12CC[C@H](O)CC1=CC[C@@H]1[C@@H]2CC[C@]2(C)C(c3cccnc3)=CC[C@@H]12` [abiraterone, reference compound]: below 100 nM and 30 to 3000 nM.
